Measured values taken from PMC3916416, “Recombinant Human Parathyroid Hormone Related Protein 1-34 and 1-84 and Their Roles in Osteoporosis Treatment” (PLoS ONE, 2014).

Legend:
[1] = test system: OVX mice (osteoporosis model); assay: Bone volume of vertebrae in OVX mice (radiography, micro-CT, histology); type: in vivo, mouse; details: 10 nmol/kg s.c. daily for 4 weeks
Method: (§1) Twenty four female C57BL/6J mice, 8 weeks age, were assigned to four different groups, with six mice per group. All mice were anesthetized with chloral hydrate (0.4 ml/100 g body weight) and subjected to surgery on day 0. Sham surgery was performed on the Sham group (Sham) by identifying the bilateral ovaries and ovariectomy (OVX) was performed on the other groups by removing the bilateral ovaries. After surgery, all mice were maintained in a virus- and parasite-free barrier facility and exposed to a 12-h/12-h light/dark cycle under standard conditions in the Medical Experimental Animal Center of Nanjing Medical University for 9 weeks. HPTHrP1–34 was subcutaneously administered at a dose of 10 nmol/kg (40 µg/kg) body weight everyday for the last 4 weeks. HPTHrP1–84 was subcutaneously administered at a dose of 10 nmol/kg (100 µg/kg) body weight everyday for the last 4 weeks. Each of the mice received vehicle (vehicle-treated sham-operated mice and vehicle-treated OVX mice), hPTHrP1-34 (hPTHrP1-34-treated OVX mice) or hPTHrP1-84 (hPTHrP1-84-treated OVX mice). At the end of experiments, all mice were sacrificed by exsanguination under chloral hydrate anesthesia and blood were collected for serum calcium, phosphorus and ALP analyses, bones and kidneys were then removed for the analyses described below.
Thoracic vertebrae were removed and dissected free of soft tissue. […]
Thoracic vertebrae were fixed overnight in 70% ethanol and analyzed by micro-CT with a SkyScan 1072 scanner and associated analysis software (SkyScan, Antwerp, Belgium) as described. […]
Total collagen was detected in paraffin sections using a modified method of Lopez-De Leon and Rojkind. […]
(§2) After HE staining or histochemical staining of sections from six mice of each genotype, images of fields were photographed with a Sony digital camera. All images were digitally recorded using a rectangular template, and recordings were processed and analyzed using Northern Eclipse image analysis software as described, [26], [28].

[2] = test system: OVX mice (osteoporosis model); assay: Osteoblastic bone formation parameters of vertebrae in OVX mice; type: in vivo, mouse; details: 10 nmol/kg s.c. daily for 4 weeks, compared to vehicle-treated sham-operated mice, n = 6
Method: as §1
Lumbar vertebrae or tibiae were removed and fixed in PLP fixative (2% paraformaldehyde containing 0.075 M lysine and 0.01 M sodium periodate solution) overnight at 4°C and processed histologically as described. Lumbar vertebrae were decalcified in ethylene-diamine tetraacetic acid (EDTA) glycerol solution for 5–7 days at 4°C. Decalcified samples were dehydrated and embedded in paraffin after which 5 µm sections were cut on a rotary microtome. […]
Double calcein labeling was performed by intraperitoneal injection of mice with 10 µg calcein/g body weight (C-0875, Sigma-Aldrich Corp., St. Louis, MO) at 10 and 3 day before death. […] Serial sections were cut, and the freshly cut surface of each section was viewed and imaged using fluorescence microscopy. The double calcein-labeled width of bone was measured using Northern Eclipse image analysis software version 6.0 (Empix Imaging, Inc., Mississauga, Canada), and the mineral apposition rate (MAR) was calculated as the interlabel width/labeling period.
as §2

[3] = Serum calcium, phosphorus and ALP in OVX mice; type: in vivo, mouse; details: 10 nmol/kg s.c. daily for 4 weeks, versus vehicle-treated OVX mice, n = 6
Method: as §1, with “At the end of experiments, all mice were sacrificed by exsanguination under chloral hydrate anesthesia and blood were collected for serum calcium, phosphorus and ALP analyses, bones and kidneys were then removed for the analyses described below.” left out
Serum calcium, phosphorus and ALP were determined at 4 weeks after the administration of drugs by autoanalyzer (Beckman Synchron 67; Beckman Instruments).

[4] = test system: OVX mice (osteoporosis model); assay: Osteoclastic bone resorption (TRAP staining) in OVX mice; type: in vivo, mouse; details: 10 nmol/kg s.c. daily for 4 weeks, vertebrae, compared with vehicle-treated OVX mice, n = 6
Method: as §1, with “At the end of experiments, all mice were sacrificed by exsanguination under chloral hydrate anesthesia and blood were collected for serum calcium, phosphorus and ALP analyses, bones and kidneys were then removed for the analyses described below.” left out
as §2

[5] = test system: renal calcium transporters (calbindin-D28K, calbindin-D9K, NCX1, TRPV5); assay: Western blot of renal calcium transporters in OVX mice; type: in vivo, mouse; details: 10 nmol/kg s.c. daily for 4 weeks, relative to vehicle-treated sham-operated mice, n = 6
Method: as §1, with “At the end of experiments, all mice were sacrificed by exsanguination under chloral hydrate anesthesia and blood were collected for serum calcium, phosphorus and ALP analyses, bones and kidneys were then removed for the analyses described below.” left out
Purified hPTHrP1-34 and 1-84 and proteins extracted from kidney were quantitated by a kit (Bio-Rad, Mississauga, Ontario, Canada). […] Bands were visualized using ECL chemiluminescence (Amersham) and quantitated by Scion Image Beta 4.02 (Scion Corporation, NIH).

[6] = Serum PTHrP analyses (ELISA) after subcutaneous injection; type: in vivo, mouse; details: OVX mice, 10 nmol/kg s.c.
Method: The OVX mice were injected with vehicle or 10 nmol/kg hPTHrP1-34 or 10 nmol/kg hPTHrP1-84 subcutaneously. Subsequently, blood samples were drawn at 15 and 30 minutes, 1, 2, 4 and 6 hours after the injections. Serum concentrations of hPTHrP1-34 or hPTHrP1-84 were measured by enzyme linked immunosorbent assay (ELISA) that used Phoenix Pharmaceuticals PTHrP(1-34)- EIA Kit (Phoenix Pharmaceuticals, USA). Procedures were performed according to the instructions of the kit.

[7] = test system: Cbfa1, ALP, Col I, OCN, RANKL, OPG mRNA in long bone; assay: Real-time RT-PCR of long bone extracts of OVX mice; type: in vivo, mouse; details: 10 nmol/kg s.c. daily for 4 weeks, n = 6
Method: as §1
RNA was isolated from 14-day cultured cells using Trizol reagent (Invitrogen) according to the manufacturer's protocol. Femurs were isolated and weighted. Homogenize tissue samples in 1 ml of TRIzol reagent per 50–100 mg of tissue using mortar and pestle with liquid nitrogen. After homogenization, remove insoluble material from the homogenate by centrifuging at 12,000 RPM for 10 min at 4°C. Transfer the top layer solution into a new tube. RNA of this solution was precipitated with isopropanol, washed with 75% ethanol and dissolved with DEPC water. Reverse transcription reactions were performed using the SuperScript First-Strand Synthesis System (Invitrogen) as previously described. […]

[8] = test system: primary bone marrow cells (BMC); assay: Primary bone marrow cell culture, cytochemical colony (CFU-f) staining; type: cell-based, rat; details: 10^-7 M on day 0, 18-day primary BMC cultures, compared with control cultures; triplicate determinations, three experiments
Method: Tibiae and femurs of 200-g male Wistar rats were removed under aseptic conditions, and bone marrow cells (BMC) were flushed out with Dulbecco's modified Eagle's minimal essential medium containing 10% fetal calf serum, 50 µg/ml ascorbic acid, 10 mM β-glycerophosphate, and 10^−8 M dexamethasone. Cells were dispersed by repeated pipetting, and a single-cell suspension was achieved by forcefully expelling the cells through a 22-gauge syringe needle. 10^6 total bone marrow cells were cultured in 36-cm^2 Petri dishes in 5 ml of the above-mentioned medium. All the dishes were assigned to three different groups. Each of the group treated with vehicle (Control), 10^−7 M hPTHrP1-34 or 10^−7 M hPTHrP1-84. The medium was changed every 4 days. The non-adherent cells containing hematopoietic elements were removed by pipetting gently when the medium was changed for the first time. Only monocytic cells remained. Cultures were maintained for 12–18 days. At the end of the culture period cells were stained cytochemically or RNA was extracted from these cells for RT-PCR as described below. The cells from 18-day primary BMC cultures were washed with PBS and fixed by the addition of cold ethanol. […] The numbers of colonies were counted macroscopically by hand. […]

[9] = test system: Cbfa-1, ALP, Col I, OCN mRNA in primary BMC; assay: Real-time RT-PCR of osteogenic genes in 14-day primary BMC cultures; type: cell-based, rat; details: 10^-7 M, ratio to GAPDH, compared with control cultures, three trials
Method: Tibiae and femurs of 200-g male Wistar rats were removed under aseptic conditions, and bone marrow cells (BMC) were flushed out with Dulbecco's modified Eagle's minimal essential medium containing 10% fetal calf serum, 50 µg/ml ascorbic acid, 10 mM β-glycerophosphate, and 10^−8 M dexamethasone. Cells were dispersed by repeated pipetting, and a single-cell suspension was achieved by forcefully expelling the cells through a 22-gauge syringe needle. 10^6 total bone marrow cells were cultured in 36-cm^2 Petri dishes in 5 ml of the above-mentioned medium. All the dishes were assigned to three different groups. Each of the group treated with vehicle (Control), 10^−7 M hPTHrP1-34 or 10^−7 M hPTHrP1-84. The medium was changed every 4 days. The non-adherent cells containing hematopoietic elements were removed by pipetting gently when the medium was changed for the first time. Only monocytic cells remained. Cultures were maintained for 12–18 days. At the end of the culture period cells were stained cytochemically or RNA was extracted from these cells for RT-PCR as described below.
RNA was isolated from 14-day cultured cells using Trizol reagent (Invitrogen) according to the manufacturer's protocol. Femurs were isolated and weighted. Homogenize tissue samples in 1 ml of TRIzol reagent per 50–100 mg of tissue using mortar and pestle with liquid nitrogen. […]

[10] = test system: placental calcium transport; details: cited from earlier work
Source text: It supports the concept that the mid-molecule region of PTHrP is functionally important in placental calcium transport. […] However, it is unclear whether there are some differences between PTHrP1-34 and 1-84 on renal calcium reabsorption and on bone formation. To answer this que ...

[11] = vertebrae, micro-CT and histology, compared to vehicle-treated OVX mice (hPTHrP1-84 also to hPTHrP1-34-treated), n = 6
[12] = compared to vehicle-treated sham-operated mice

Substance | radiolucency in vertebrae ([1]; radiography, compared to vehicle-treated sham-operated mice) | cortical thickness [1, 11] | trabecular bone volume [1, 11] | ALP positive area [2] | MAR (mineral apposition rate) [2] | osteoblast number [2] | osteoid volume [2] | Serum mineral ion and ALP levels [3] | TRAP positive osteoclast number [4] | TRAP positive osteoclast surface [4] | protein levels of calbindin-D28K, calbindin-D9K, NCX1 and TRPV5 in the kidney [5] | circulating t1/2 ([6]; ELISA, read from the figure (Fig. 6e), approximate) | time at which plasma PTHrP levels declined to baseline levels ([6]; ELISA, sampling 15 and 30 min, 1, 2, 4, 6 h, n = 6) | plasma PTHrP levels at 15 min after the administration ([6]; single injection, PTHrP(1-34) EIA kit (ELISA), mean ± SEM, n = 6) | ratios of RANKL/OPG mRNA levels ([7]; among vehicle-treated, hPTHrP1-34-treated and hPTHrP 1-84-treated OVX mice) | osteoblastic gene expression levels of Cbfa1, ALP [7, 12] | ratios of RANKL/OPG mRNA levels [7, 12] | colony formation and osteogenic cell differentiation and mineralization [8] | gene expression levels of Cbfa-1, ALP, type I collagen (Col I) and osteocalcin (OCN) [9] | placental calcium transfer [10]
hPTHrP1-34: recombinant human parathyroid hormone related protein 1-34, expressed as GST fusion in E. coli BL21 and cleaved by thrombin | increased | not altered significantly | not altered significantly | increased | decreased | increased | not altered significantly | no significant differences | did not further increase | did not further increase | down-regulated | approximately 45 mins | 2 h | 9 ± 0.7 pM | no significant differences | slightly up-regulated | increased significantly | significant increase | upregulated significantly | –
synthetic PTHrP1-34: synthetic PTHrP1-34 of the literature study on placental calcium transfer (ref 18) | – | – | – | – | – | – | – | – | – | – | – | – | – | – | – | – | – | – | – | no such effect
